The nature of test [1]: Cytotoxicity against human A375S2 cells assessed as induction of cell death at 30 ug/mL by MTT assay. Type of test: functional, A375-S2. (In general: Tetrazolium dyes change colour on reduction, which living cells bring about.)
The nature of test [2]: Cytotoxicity against human A375S2 cells assessed as induction of cell death at 20 ug/mL by MTT assay. The test is classed as functional, A375-S2.

The structures appear in SMILES notation.

As to `CCCCCCCCCCCCCCCCCCCCCC[C@@H](O)[C@@H](O)[C@H](CO)NC(=O)[C@H](O)CCCCCCCCC1CC1CCCC` (stereo partly drawn) [GRACILAMIDE B], the Activity in test [1] stood at 11.7%.
`CCCCCCCCCCCCCCCCCCCCCCC[C@@H](O)C(=O)N[C@@H](CO)[C@H](O)[C@H](O)C/C=C/CCCCC1CC1CCCC` (stereo partly drawn) [GRACILAMIDE A]: the Activity in test [1] was determined as 11.7%.
Turning to `CCCCCCCCCCCCCCCCCCCCCCC[C@@H](O)C(=O)N[C@@H](CO[C@@H]1O[C@H](CO)[C@@H](O)[C@H](O)[C@H]1O)[C@H](O)[C@H](O)C/C=C/CCCCC1CC1CCCC` (stereo partly drawn) [GRACILARIOSIDE], in test [2], the Activity turned out to be 18.2%.

(Values after ChEMBL document CHEMBL1158087, “Gracilarioside and gracilamides from the red alga Gracilaria asiatica” (2006).)
